{"source": "PubChem BioAssay (NCI)", "assay_in_all_cases": "NCI-60 cell line screen, 384-well format", "key": {"[1]": {"system": "MCF7 breast"}, "[2]": {"system": "NCI-H23 lung"}, "[3]": {"system": "MOLT-4 leukemia"}, "[4]": {"system": "SW-620 colon"}, "[5]": {"system": "HCT-15 colon"}, "[6]": {"system": "SK-MEL-5 melanoma"}, "[7]": {"system": "A498 renal"}, "[8]": {"system": "OVCAR-4 ovarian"}, "[9]": {"system": "UACC-257 melanoma"}, "[10]": {"system": "IGROV1 ovarian"}, "[11]": {"system": "BT-549 breast"}, "[12]": {"system": "SF-539 CNS"}, "[13]": {"system": "SF-295 CNS"}, "[14]": {"system": "MALME-3M melanoma"}, "[15]": {"system": "MDA-MB-231 breast"}, "[16]": {"system": "HOP-92 NSCLC"}, "[17]": {"system": "M14 melanoma"}, "[18]": {"system": "OVCAR-5 ovarian"}, "[19]": {"system": "OVCAR-3 ovarian"}, "[20]": {"system": "RXF 393 renal"}, "[21]": {"system": "A549 NSCLC"}, "[22]": {"system": "T-47D breast"}, "[23]": {"system": "HCC-2998 colon"}, "[24]": {"system": "SK-MEL-28 melanoma"}, "[25]": {"system": "RPMI-8226 leukemia"}, "[26]": {"system": "UACC-62 melanoma"}, "[27]": {"system": "LOX IMVI melanoma"}, "[28]": {"system": "HT29 colon"}, "[29]": {"system": "COLO 205 colon"}, "[30]": {"system": "HS 578T breast"}, "[31]": {"system": "DU-145 prostate"}, "[32]": {"system": "CAKI-1 renal"}, "[33]": {"system": "SK-OV-3 ovarian"}, "[34]": {"system": "SF-268 CNS"}, "[35]": {"system": "UO-31 renal"}, "[36]": {"system": "786-0 renal"}, "[37]": {"system": "NCI-H322M lung"}, "[38]": {"system": "MDA-MB-468 breast"}, "[39]": {"system": "U251 glioblastoma"}, "[40]": {"system": "HOP-62 NSCLC"}, "[41]": {"system": "SR leukemia"}, "[42]": {"system": "SNB-19 CNS"}, "[43]": {"system": "K-562 leukemia"}, "[44]": {"system": "ACHN renal"}, "[45]": {"system": "NCI/ADR-RES ovarian"}, "[46]": {"system": "NCI-H460 NSCLC"}, "[47]": {"system": "EKVX NSCLC"}, "[48]": {"system": "CCRF-CEM leukemia"}, "[49]": {"system": "SN12C renal"}, "[50]": {"system": "NCI-H226 lung"}, "[51]": {"system": "KM12 colon"}, "[52]": {"system": "NCI-H522 lung"}, "[53]": {"system": "HL-60(TB) leukemia"}, "[54]": {"system": "SNB-75 CNS"}, "[55]": {"system": "OVCAR-8 ovarian"}}, "note": "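GI50 is the concentration that inhibits growth by half. The concentration for full growth arrest is given as TGI.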"}
{"compound": "NS(=O)(=O)OC[C@@H]1C[C@@H](n2ccc3c(NC4CCc5ccccc54)ncnc32)C[C@@H]1O", "note": "(stereo not given in full)", "values": [{"measurement": "GI50", "setting": "[1]", "value": 32.9, "unit": "nM"}, {"measurement": "TGI", "setting": "[1]", "value": 424, "unit": "nM"}, {"measurement": "GI50", "setting": "[2]", "value": 212, "unit": "nM"}, {"measurement": "TGI", "setting": "[2]", "value": 1380, "unit": "nM"}, {"measurement": "GI50", "setting": "[3]", "value": 29, "unit": "nM"}, {"measurement": "TGI", "setting": "[3]", "value": 117, "unit": "nM"}, {"measurement": "GI50", "setting": "[4]", "value": 602, "unit": "nM"}, {"measurement": "TGI", "setting": "[4]", "value": 15700, "unit": "nM"}, {"measurement": "GI50", "setting": "[5]", "value": 277, "unit": "nM"}, {"measurement": "TGI", "setting": "[5]", "value": 11200, "unit": "nM"}, {"measurement": "GI50", "setting": "[6]", "value": 34.3, "unit": "nM"}, {"measurement": "TGI", "setting": "[6]", "value": 223, "unit": "nM"}, {"measurement": "GI50", "setting": "[7]", "value": 43.8, "unit": "nM"}, {"measurement": "TGI", "setting": "[7]", "value": 10400, "unit": "nM"}, {"measurement": "GI50", "setting": "[8]", "value": 210, "unit": "nM"}, {"measurement": "TGI", "setting": "[8]", "value": 799, "unit": "nM"}, {"measurement": "GI50", "setting": "[9]", "value": 162, "unit": "nM"}, {"measurement": "TGI", "setting": "[9]", "value": 10500, "unit": "nM"}, {"measurement": "GI50", "setting": "[10]", "value": 257, "unit": "nM"}, {"measurement": "TGI", "setting": "[10]", "value": 4400, "unit": "nM"}, {"measurement": "GI50", "setting": "[11]", "value": 56.7, "unit": "nM"}, {"measurement": "TGI", "setting": "[11]", "value": 491, "unit": "nM"}, {"measurement": "GI50", "setting": "[12]", "value": 85.3, "unit": "nM"}, {"measurement": "TGI", "setting": "[12]", "value": 260, "unit": "nM"}, {"measurement": "GI50", "setting": "[13]", "value": 176, "unit": "nM"}, {"measurement": "TGI", "setting": "[13]", "value": 333, "unit": "nM"}, {"measurement": "GI50", "setting": "[14]", "value": 202, "unit": "nM"}, {"measurement": "TGI", "setting": "[14]", "value": 766, "unit": "nM"}, {"measurement": "GI50", "setting": "[15]", "value": 216, "unit": "nM"}, {"measurement": "TGI", "setting": "[15]", "value": 2730, "unit": "nM"}, {"measurement": "GI50", "setting": "[16]", "value": 439, "unit": "nM"}, {"measurement": "TGI", "setting": "[16]", "value": 18800, "unit": "nM"}, {"measurement": "GI50", "setting": "[17]", "value": 151, "unit": "nM"}, {"measurement": "TGI", "setting": "[17]", "value": 1050, "unit": "nM"}, {"measurement": "GI50", "setting": "[18]", "value": 554, "unit": "nM"}, {"measurement": "TGI", "setting": "[18]", "value": 13600, "unit": "nM"}, {"measurement": "GI50", "setting": "[19]", "value": 43.2, "unit": "nM"}, {"measurement": "TGI", "setting": "[19]", "value": 3550, "unit": "nM"}, {"measurement": "GI50", "setting": "[20]", "value": 60.1, "unit": "nM"}, {"measurement": "TGI", "setting": "[20]", "value": 304, "unit": "nM"}, {"measurement": "GI50", "setting": "[21]", "value": 405, "unit": "nM"}, {"measurement": "TGI", "setting": "[21]", "value": 13800, "unit": "nM"}, {"measurement": "GI50", "setting": "[22]", "value": 142, "unit": "nM"}, {"measurement": "TGI", "setting": "[22]", "value": 15800, "unit": "nM"}, {"measurement": "GI50", "setting": "[23]", "value": 434, "unit": "nM"}, {"measurement": "TGI", "setting": "[23]", "value": 5530, "unit": "nM"}, {"measurement": "GI50", "setting": "[24]", "value": 163, "unit": "nM"}, {"measurement": "TGI", "setting": "[24]", "value": 1880, "unit": "nM"}, {"measurement": "GI50", "setting": "[25]", "value": 126, "unit": "nM"}, {"measurement": "TGI", "setting": "[25]", "value": 1560, "unit": "nM"}, {"measurement": "GI50", "setting": "[26]", "value": 20.2, "unit": "nM"}, {"measurement": "TGI", "setting": "[26]", "value": 137, "unit": "nM"}, {"measurement": "GI50", "setting": "[27]", "value": 39.9, "unit": "nM"}, {"measurement": "TGI", "setting": "[27]", "value": 168, "unit": "nM"}, {"measurement": "GI50", "setting": "[28]", "value": 256, "unit": "nM"}, {"measurement": "TGI", "setting": "[28]", "value": 11600, "unit": "nM"}, {"measurement": "GI50", "setting": "[29]", "value": 40.6, "unit": "nM"}, {"measurement": "TGI", "setting": "[29]", "value": 292, "unit": "nM"}, {"measurement": "GI50", "setting": "[30]", "value": 186, "unit": "nM"}, {"measurement": "TGI", "setting": "[30]", "value": 13200, "unit": "nM"}, {"measurement": "GI50", "setting": "[31]", "value": 68.6, "unit": "nM"}, {"measurement": "TGI", "setting": "[31]", "value": 14000, "unit": "nM"}, {"measurement": "GI50", "setting": "[32]", "value": 76.4, "unit": "nM"}, {"measurement": "TGI", "setting": "[32]", "value": "> 100000", "unit": "nM"}, {"measurement": "GI50", "setting": "[33]", "value": 206, "unit": "nM"}, {"measurement": "TGI", "setting": "[33]", "value": 703, "unit": "nM"}, {"measurement": "GI50", "setting": "[34]", "value": 238, "unit": "nM"}, {"measurement": "TGI", "setting": "[34]", "value": 4970, "unit": "nM"}, {"measurement": "GI50", "setting": "[35]", "value": 3180, "unit": "nM"}, {"measurement": "TGI", "setting": "[35]", "value": "> 100000", "unit": "nM"}, {"measurement": "GI50", "setting": "[36]", "value": 226, "unit": "nM"}, {"measurement": "TGI", "setting": "[36]", "value": 1130, "unit": "nM"}, {"measurement": "GI50", "setting": "[37]", "value": 333, "unit": "nM"}, {"measurement": "TGI", "setting": "[37]", "value": 11100, "unit": "nM"}, {"measurement": "GI50", "setting": "[38]", "value": 13.5, "unit": "nM"}, {"measurement": "TGI", "setting": "[38]", "value": 64.9, "unit": "nM"}, {"measurement": "GI50", "setting": "[39]", "value": 254, "unit": "nM"}, {"measurement": "TGI", "setting": "[39]", "value": 12500, "unit": "nM"}, {"measurement": "GI50", "setting": "[40]", "value": 114, "unit": "nM"}, {"measurement": "TGI", "setting": "[40]", "value": 372, "unit": "nM"}, {"measurement": "GI50", "setting": "[41]", "value": 24.3, "unit": "nM"}, {"measurement": "TGI", "setting": "[41]", "value": 79.1, "unit": "nM"}, {"measurement": "GI50", "setting": "[42]", "value": 372, "unit": "nM"}, {"measurement": "TGI", "setting": "[42]", "value": 28500, "unit": "nM"}, {"measurement": "GI50", "setting": "[43]", "value": 62.7, "unit": "nM"}, {"measurement": "TGI", "setting": "[43]", "value": 10900, "unit": "nM"}, {"measurement": "GI50", "setting": "[44]", "value": 227, "unit": "nM"}, {"measurement": "TGI", "setting": "[44]", "value": 735, "unit": "nM"}, {"measurement": "GI50", "setting": "[45]", "value": 1520, "unit": "nM"}, {"measurement": "TGI", "setting": "[45]", "value": 11300, "unit": "nM"}, {"measurement": "GI50", "setting": "[46]", "value": 274, "unit": "nM"}, {"measurement": "TGI", "setting": "[46]", "value": 958, "unit": "nM"}, {"measurement": "GI50", "setting": "[47]", "value": 2430, "unit": "nM"}, {"measurement": "TGI", "setting": "[47]", "value": "> 100000", "unit": "nM"}, {"measurement": "GI50", "setting": "[48]", "value": 24.6, "unit": "nM"}, {"measurement": "TGI", "setting": "[48]", "value": 126, "unit": "nM"}, {"measurement": "GI50", "setting": "[49]", "value": 370, "unit": "nM"}, {"measurement": "TGI", "setting": "[49]", "value": 4360, "unit": "nM"}, {"measurement": "GI50", "setting": "[50]", "value": 112, "unit": "nM"}, {"measurement": "TGI", "setting": "[50]", "value": 804, "unit": "nM"}, {"measurement": "GI50", "setting": "[51]", "value": 255, "unit": "nM"}, {"measurement": "TGI", "setting": "[51]", "value": 4950, "unit": "nM"}, {"measurement": "GI50", "setting": "[52]", "value": 42.8, "unit": "nM"}, {"measurement": "TGI", "setting": "[52]", "value": 844, "unit": "nM"}, {"measurement": "GI50", "setting": "[53]", "value": 10.9, "unit": "nM"}, {"measurement": "TGI", "setting": "[53]", "value": 26.6, "unit": "nM"}, {"measurement": "GI50", "setting": "[54]", "value": 178, "unit": "nM"}, {"measurement": "TGI", "setting": "[54]", "value": 627, "unit": "nM"}, {"measurement": "GI50", "setting": "[55]", "value": 119, "unit": "nM"}, {"measurement": "TGI", "setting": "[55]", "value": 316, "unit": "nM"}]}
